Legend:
[1] = system: human HLA-DR; conditions: literature (Southwood et al. 1998); cited from earlier work
[2] = ELISA of sera from vaccinated mice for antibodies against Gb3; format: in vivo, mice (C57BL/6J); conditions: mice vaccinated subcutaneously, unconjugated antigen plus an adjuvant such as QS-21; sera tested against Gb3-ceramide
Procedure: Groups of five mice were vaccinated subcutaneously with Gb3-MUC5AC or Gb3-MUC5AC-KLH conjugate plus adjuvant with appropriate controls. Sera were tested against Gb3-ceramide by ELISA.
Groups of five mice (C57BL/6J, female, 6-8 weeks old) were vaccinated three times with GB3-ceramide conjugate (5 μg equivalent of GB3), MUC5Ac peptide (5 μg equivalent of MUC5Ac), GB3-MUC5Ac-SH conjugate (5 μg equivalent of GB3-MUC5AC), GB3-MUC5Ac-KLH conjugate (1, 5 and 10 μg equivalent of GB3-MUC5Ac), Globo H-KLH conjugate (5 μg equivalent of GloboH) and KLH protein alone (5 μg equivalent of KLH) in 100 μL phosphate buffered saline (PBS) either with an adjuvant (20 μg) or without adjuvant. Vaccines were administered subcutaneously to each mouse on weeks 1, 2, 3, and 7. Mice were bled 7 days after the third vaccination and forth vaccination.
The presence of antibodies was tested by an enzyme-linked immunosorbent assay (ELISA). ELISAs were performed to determine antibody response against GB3, Globo H and KLH. The ELISA plates were coated with either GB3 antigen or Globo H at 0.2 μg/well and 0.1 μg/well respectively in ethanol or KLH at 0.1 μg/well in carbonate buffer (pH 10). The GB3-coated and Globo H coated plates were kept overnight at room temperature to evaporate ethanol, and KLH coated plates were incubated at 4° C. overnight. […] Absorbance was measured at 405 nm.

| Substance | binding capacity to human HLA-DR alleles [1] | number of different alleles of human HLA-DR bound [1] | antibodies against Gb3 by ELISA [2] |
| --- | --- | --- | --- |
| GLAYKFVVPGAATPY | prevalently in the nanomolar range | up to 9 |  |
| globotriaosyl ceramide [Gb3-ceramide] |  |  | failed to produce antibodies against Gb3 |

Reference: US9598466B2, “Glycopeptide constructs and uses thereof” (Sloan-Kettering Institute for Cancer Research, priority 2008, dated 2017)
